Measured values as given in patent publication US20090076029A1 (Palatin Technologies, Inc., priority 2007, published 2009).
Values joined by “and” are separate entries in the source; they are usually repeats but may differ in a detail not shown here. Equal values may be shown once. Read-outs that look alike come from different tables or passages of the source.

What was measured:
[1] = molecular target: T1, hMC3-R; assay: Competitive inhibition assay using [I125]-NDP-α-MSH, hMC3-R membranes; format: binding, human; conditions: read-out: Ki (nM) (NDP-α-MSH) MC3-R
T1 construct: expressed in transfected cells; host or cells: HEK-293
Procedure: (§1) Competitive inhibition assay using [1125]-NDP-α-MSH. A competitive inhibition binding assay was conducted using membranes prepared from HEK-293 cells transfected to express hMC3-R, hMC4-R or hMC5-R, and from B-16 mouse melanoma cells (containing MC1-R) using 0.2 to 0.4 nM [I^125]-NDP-α-MSH (New England Nuclear) in 50 mM HEPES buffer containing 1 mM MgCl2, 2 mM CaCl2, and 5 mM KCl, at pH 7.2. In certain experiments, HEK-293 cells transfected to express hMC1-R were also employed. The assay tube also contained a chosen concentration of the test compound of this invention, typically a 1 μM concentration, for determining inhibition of the binding of [^1125]-NDP-α-MSH to its receptor. Non-specific binding was measured by inhibition of binding of [I^125]-NDP-α-MSH in the assay with the presence of 1 μM α-MSH.
(§2) The assay mixture was incubated for 90 minutes at room temperature, then filtered and the membranes washed three times with ice cold buffer. The filter was dried and counted in a gamma counter for remaining radioactivity bound to the membranes. 100% specific binding was defined as the difference in radioactivity (cpm) bound to cell membranes in the absence and presence of 1 μM α-MSH. The cpm obtained in presence of test compounds were normalized with respect to 100% specific binding to determine the percent inhibition of [125]-NDP-α-MSH binding. Each assay was conducted in triplicate and the actual mean values are described, with results less than 0% reported as 0%.

[2] = molecular target: T2, hMC4-R; assay: Competitive inhibition assay using [I125]-NDP-α-MSH, hMC4-R membranes; format: binding, human; conditions: for attenuation of binding of α-MSH and AgRP to MC4-R: both ligands (NDP-α-MSH and AgRP), summary
T2 construct: expressed in transfected cells; host or cells: HEK-293
Procedure: as §1, §2

[3] = molecular target: T3, hMC5-R; assay: Competitive inhibition assay using [I125]-NDP-α-MSH, hMC5-R membranes; format: binding, human; conditions: read-out: Ki (nM) (NDP-α-MSH) MC5-R
T3 construct: expressed in transfected cells; host or cells: HEK-293
Procedure: as §1, §2

[4] = tested on: T2, hMC4-R; format: binding, human; conditions: for Inhibition at 1 μM (AgRP) MC4-R: 1 μM compound
Procedure: Competitive binding assay using [I^125]-AgRP (83-132). Competitive binding studies using [I^125]-AgRP (83-132) were carried out on membranes isolated from cells expressing hMC4-R. The assay was performed in 96 well GF/B Millipore multiscreen filtration plates (MAFB NOB10) pre-coated with 0.5% bovine serum albumin (Fraction V). The assay mixture contained 25 mM HEPES buffer (pH 7.5) with 100 mM NaCl, 2 mM CaCl2, 2 mM MgCl2, 0.3 mM 1,10-phenanthroline, 0.5% bovine serum albumin, cell membranes, radioligand [I^125]-AgRP (83-132) (NEN), and increasing concentrations of compounds in a total volume of 200 μL. Binding was measured at radioligand concentrations of 0.2 nM. After incubating for 1 hour at 37° C., the reaction mixture was filtered and washed with an assay buffer containing 500 mM NaCl. The dried discs were punched out from the plate and counted on a gamma counter. Care was taken to limit the specific binding of the ligand to an amount not exceeding 10% of the counts added to the reaction mixture. Data were analyzed using the Prism Graph-Pad curve fitting software.

[5] = tested on: T2, hMC4-R; assay: cAMP functional assay in HEK-293 cells expressing MC4-R (agonist, neutral antagonist/Schild); format: cell-based, human; conditions: for intrinsic activity at MC4-R: NDP-α-MSH maximal stimulation = 1.0; for functional status at MC4-R: mostly at 1 μM
Procedure: General method for EC50 determination in functional activity assay. Functional evaluation of compounds at melanocortin receptors was performed by measuring the accumulation of intracellular cAMP in HEK-293 cells expressing hMC3-R, hMC4-R or hMC5-R, and in B-16 mouse melanoma cells expressing MC1-R. Cells suspended in Earle's Balanced Salt Solution containing 10 mM HEPES (pH 7.5), 5 mM MgCl2, 1 mM glutamine, 0.1% albumin and 0.6 mM 3-isobutyl-1-methyl-xanthine, a phosphodiesterase inhibitor, were plated in 96 well plates at a density of 0.5×10^5 cells per well. Cells were incubated with the test compounds in the presence or absence of α-MSH for 1 hour at 37° C. cAMP levels in the cell lysates were measured using an EIA kit (Amersham). Data analysis and EC50 values were determined using nonlinear regression analysis with Prism Graph-Pad software.
Functional status. The agonist/antagonist status with respect to MC1-R, MC-3R, MC4-R and MC5-R of certain compounds of the invention was determined.
Assay for agonist. Evaluation of the molecules to elicit a functional response in HEK-293 cells expressing MC4-R was accomplished by measuring the accumulation of intracellular cAMP following treatment. Confluent HEK-293 cells expressing MC4-R were detached by enzyme free cell suspension buffer. Cells were suspended in Earle's Balanced Salt Solution containing 10 mM HEPES (pH 7.5), 1 mM MgCl2, 1 mM glutamine, 0.5% albumin and 0.3 mM 3-isobutyl-1-methyl-xanthine (IBMX), a phosphodiesterase inhibitor. The cells were plated in 96 well plates at a density of 0.5×10^5 cells per well and pre-incubated for 30 minutes. The cells were then challenged with the test compounds dissolved in DMSO at a concentration range of 0.05-5000 nM in a total assay volume of 200 μL for 1 hour at 37° C. The concentration of DMSO was always held at 1% in the assay mixture. NDP-α-MSH was used as the reference agonist. At the end of the incubation period the cells were disrupted by the addition of 50 μL of lysis buffer from a cAMP EIA kit (Amersham). Complete rupture of the cells was obtained by pipetting the cells multiple times. cAMP levels in the cell lysates were measured after appropriate dilution using the EIA kit (Amersham) method. Data analysis and EC50 values were determined by using nonlinear regression analysis with Prism Graph-Pad software. […] FIG. 1 illustrates typical results, showing the stimulation of cAMP using the compound of Example 11 in HEK-293/MC4-R cells with comparison to NDP-α-MSH.
Assay for Neutral Antagonist. Compounds with a high affinity for binding to MC4-R membranes but with less potency in terms of cAMP accumulation (EC50>1000 nM) and low response ratio (<0.1) were analyzed for their ability to antagonize the stimulatory effect of the agonist NDP-α-MSH. These studies were carried out in HEK-293 cells expressing MC4-R. Cells were incubated with the compounds in the presence of the agonist NDP-α-MSH and the extent of antagonism was measured by the decrease in intracellular cAMP concentrations. Screening the compounds for antagonist activity was performed at a single concentration of NDP-α-MSH (1.0 nM) over a compound concentration range of 0.5-5000 nM.
Experimental details were similar to the analysis for agonistic activity described above. Briefly, cells were pre-incubated for 30 minutes with the test compounds at concentrations between 0.5 nM and 5000 nM. The cells were then stimulated with NDP-α-MSH at a concentration of 1 nM for 1 hour. For Schild's analysis, the interactions were studied using at least 3 concentrations of the compounds, separated by a log unit, over a full range of the agonist (0.005-5000 nM). cAMP levels were measured in the cell lysates after appropriate dilution. Nonlinear regression analysis with Prism Graph-Pad software was used for Schild analysis and to obtain EC50 values. pA2 values were derived from the Schild plot of the data.

[6] = molecular target: T4, MC1-R; assay: Competitive inhibition assay using [I125]-NDP-α-MSH, MC1-R membranes; format: binding, mouse; conditions: for Inhibition at 1 μM (NDP-α-MSH) MC1-R: 1 μM compound
T4 construct: other: 1 μM compound
Procedure: as §1, §2

[7] = MC4-R membranes, Table 1, read-out: Ki (nM) I125-NPD-α-MSH
[8] = MC4-R membranes, Table 1, read-out: Ki (nM) I125-AgRP
[9] = MC4-R, Table 1 in μM, read-out: EC50
[10] = cAMP assay, read-out: EC50 (nM) at MC4-R

Row | Molecule | Ki [1] [nM] | Ki [2, 7] [nM] | attenuation of binding of α-MSH and AgRP to MC4-R [2] | Ki ([2]; read-out: Ki (nM) (NDP-α-MSH) MC4-R) | Ki [3] [nM] | Inhibition at 1 μM (AgRP) MC4-R [4] [%] | Ki [4, 8] [nM] | Ki ([4]; read-out: Ki (nM) (AgRP) MC4-R) | functional status (pAg, Ag, Antag, Inactive) ([5]; MC4-R, Table 1) | EC50 [5, 9] [µM] | intrinsic activity at MC4-R [5] | functional status at MC4-R ([5]; cAMP assay) | EC50 [5, 10] [µM] | Ki [6] [nM] | Inhibition at 1 μM (NDP-α-MSH) MC1-R [6] [%] | EC50 ([5]; MC4-R, Table 1, read-out: EC50) [µM] | EC50 ([5]; cAMP assay, printed in μm, read-out: EC50 at MC4-R) [µM]
1 | 2-naphthylacetyl-1-amino-1-cyclohexane-carbonyl-D-Phe(4-Cl)-Arg-Trp-NH2 [Example 25] | 453 | 40 | attenuate the binding of both α-MSH and AgRP to MC4-R | 40 | 300 | 91 | 50 | 50 | pAg (“pAg” means partial agonist) | > 1 | 0.2 | partial agonist (intrinsic activity between 0.1 (10%) and 0.7 (70%) is classified as a partial agonist) | > 1 |  |  |  | 
2 | NCCCC[C@H]1C(=O)N(CCc2ccc3ccccc3c2)CCN1C(=O)[C@@H](Cc1ccc(Cl)cc1Cl)NC(=O)[C@@H]1CC[C@H](c2ccccc2)N1 [Example 19, (2S,5R)-5-Phenyl-pyrrolidine-2-carboxylic acid [(R)-2-[(S)-2-(4-amino-butyl)-4-(2-naphthalen-2-yl-ethyl)-3-oxo-piperazin-1-yl]-1-(2,4-dichloro-benzyl)-2-oxo-ethyl]-amide] | 855 |  | attenuate the binding of both α-MSH and AgRP to MC4-R |  |  | 95 | 63 | 63 | pAg (“pAg” means partial agonist) |  | 0.19 and 0.2 |  | 0.959 | 1370 | 0 | 0.959 | 
3 | N=C(N)NCCC[C@H]1C(=O)N2C(CC[C@@H]2COc2ccc3ccccc3c2)N1C(=O)[C@@H](Cc1ccc(Cl)cc1Cl)NC(=O)[C@@H]1CC[C@H](c2ccccc2)N1 (stereo partly drawn) [Example 20, (2S,5R)-5-Phenyl-pyrrolidine-2-carboxylic acid {(R)-1-(2,4-dichloro-benzyl)-2-[(2S,5R)-2-(3-guanidino-propyl)-5-(naphthalen-2-yloxymethyl)-3-oxo-hexahydro-pyrrolo[1,2-a]imidazol-1-yl]-2-oxo-ethyl}-amide] | 312 |  |  |  |  | 99 | 23 | 23 | Inactive |  |  | inactive |  | 1040 | 16 | > 1 | 
4 | NCCCC[C@H]1C(=O)N(CCc2ccc3ccccc3c2)CCN1C(=O)[C@@H](Cc1ccc(Cl)cc1Cl)NC(=O)c1ccc(Oc2ccccc2)cc1 [Example 22, N—[(R)-2-[(S)-2-(4-Amino-butyl)-4-(2-naphthalen-2-yl-ethyl)-3-oxo-piperazin-1-yl]-1-(2,4-dichloro-benzyl)-2-oxo-ethyl]-4-phenoxy-benzamide] |  |  |  |  |  | 100 | 0.9 | 0.9 | Inactive |  |  | inactive |  |  |  | > 1 | 
5 | Cc1cc(Cl)ccc1C[C@@H](N)C(=O)N1C[C@@H](C)N(CCc2ccc3ccccc3c2)C[C@@H]1CCCNC(=N)N [Example 27, N-{3-[1-[2(R)-Amino-3-(2-methyl, 4-chloro-phenyl)-propionyl]-5(R)-methyl-4-(2-naphthaen-2-yl-ethy)-piperazin-2(S)-yl]-propyl}-guanidine] |  | 29 |  |  |  |  |  |  | pAg (“pAg” means partial agonist) |  | 0.3 | partial agonist (intrinsic activity between 0.1 (10%) and 0.7 (70%) is classified as a partial agonist) | 0.214 |  |  | 0.214 | 
6 | C[C@@H]1CN(C(=O)[C@H](N)Cc2ccc(Cl)cc2)[C@@H](CCCNC(=N)N)CN1CCc1ccc2ccccc2c1 [Example 29, N-{3-[1-[2(R)-Amino-3-(4-CHLORO-phenyl)-propionyl]-5(R)-methyl-4-(2-naphthalen-2-yl-ethyl)-piperazin-2(S)-yl]-propyl}-guanidine] |  |  | attenuate the binding of both α-MSH and AgRP to MC4-R |  |  | 97 |  | 15 | Ag |  | 0.8 | agonist (intrinsic activity of 0.7 (70%) or higher is classified as an agonist) | 0.252 |  |  | 0.252 | 
7 | NH2—(CH2)6—C(═O)-Ser(Bzl)-D-Phe(4-Cl)-Arg-Trp-Ala-NH2 [Example 16] | 35 |  |  |  |  |  |  |  |  | > 1 |  | functionally inactive |  | 142 | 60 |  | > 1
